Laboratory results taken from patent publication US20170055529A1, “BROAD SPECTRUM WEED CONTROL IN FLOODED RICE BY IN-WATER APPLICATION OF AUXIN HERBICIDES” (priority 2015, published 2017).

How the values were obtained:
Assay type in all cases: in vivo
[1] = test system: ORYSP = Oryza sativa (transplanted paddy rice); experiment: Greenhouse in-water application (large pots), crop injury
Description: Weed seeds or nutlets of the desired test plant species were planted in puddled soil (mud) prepared by mixing shredded topsoil and deionized (DI) water in a 1:1 ratio in a standard cement mixer. […] Osmocote® (17:6:10 N:P:K; 0.5 teaspoon) was added to the bottom of a container. The container is a high-density polyethylene (HDPE) round container (4.163 L (1.1 gallon), 15 cm high×20.55 cm diameter; for treatment purposes, the surface area is calculated as 331 cm^2 with 1 hectare equivalent to 10^8 cm^2). The mud mixture (2,750 mL) was added to the container filling it half full. Stakes were placed horizontally in each container to create separate areas for which to plant each different plant species. Water was added on a regular basis to maintain the paddy flood, and supplemental lighting was provided with overhead metal halide 1000-Watt lamps as necessary.
Once the plants had reached the proper size (the growth stage of the various species ranged from 2 to 4 leaves), the containers were flooded with city water to a depth of 3 cm submerging the plants 80-100%. The outside of each container was measured and marked at a 3-cm line with a black permanent marker to eliminate water level variability during the trial period. Water was added daily to maintain this water depth. Triclopyr triethylammonium (as Garlon® 3 A, 360 g ae/L); triclopyr butoxyethyl ester (as Garlon® 4, 480 g ae/L); fluroxypyr methylheptyl ester (meptyl or MHE, as Starane® Ultra, 333 g ae/L); fluroxypyr acid (850 grams acid equivalent per kilogram (g ae/kg)); 2,4-dichlorophenoxyacetic acid dimethylammonium (2,4-D DMA, as Weedar® 64 EC, 456 g ae/L); 2,4-dichlorophenoxyacetic acid 2-ethylhexyl ester (2,4-D 2-EHE, as Agri Star®, 456 g ae/L); clopyralid olamine (as Stinger®, 360 g ae/L); and penoxsulam (as Grasp® SC, 240 g ai/L) were used. Each herbicide treatment for each pot was mixed in water (80 mL) and applied directly into the paddy water at rates adjusted to the surface area. The dry formulations were pre-weighed based on the rate of the active ingredient to be applied on a per unit area basis, placed in 30 mL vials, and capped. Granules were spread onto the top of the water in each pot and dispersed throughout the water. Treatments were replicated 3 times.
The treated plants and control plants were placed in a greenhouse as described above and water was added as needed to maintain a flood depth of 3 cm. […]

[2] = test system: LEFCH = Leptochloa chinensis (Chinese sprangletop); experiment: Field trial in-water herbicidal efficacy
Description: (§1) Field trials were conducted in rice using standard herbicide small plot research methodology. Plot size was 2 square meters (m^2) using 1.6 meter (m) diameter rings placed into the rice paddy soil with capability for flooding to maintain good rice cultural practices and rice growing conditions. There were 3 replicates per treatment. Rice was Japonica type that was hand-transplanted into the saturated soil in the rings as per normal cultural practices. The transplanted rice crop was grown using normal cultural practices for fertilization, watering, flooding and maintenance to ensure good growth of the crop and the weeds under transplanted rice conditions in Taiwan.
(§2) Treatments were applied by mixing the treatments with deionized water just prior to water-injection application by hand to multiple sides in the ring plots. For each 2 m^2 plot, 50 mL deionized water was mixed with the appropriate formulated product amounts to treat 2 m^2 to achieve the desired application rates based on unit area of application (hectare). Ring plot water depth was kept at 3 to 7 cm deep before and after water-injection application.
(§3) The rice and weeds were evaluated at 28 days after application (DAA). Triclopyr triethylammonium (as Garlon® 3 A, 360 g ae/L); fluroxypyr methylheptyl ester (meptyl or MHE, as Starane® Ultra, 333 g ae/L); 2,4-dichlorophenoxyacetic acid dimethylammonium (2,4-D AMINE, 400 g ae/L SL); penoxsulam (as Grasp® SC, 240 g ai/L); and bensulfuron-methyl (as LONDAX® 10% WAY WP) were used.
(§4) The treated and control plots were rated at 28 days after application. Ratings were based on percent (%) visual weed control, where 0 corresponds to no control and 100 corresponds to complete control.

[3] = test system: ECHCG = Echinochloa crus-galli (barnyardgrass); experiment: Field trial in-water herbicidal efficacy
Description: as §1, §2, §3, §4

[4] = test system: CYPDI = Cyperus difformis (small-flower flatsedge); experiment: Field trial in-water herbicidal efficacy
Description: as §1, §2, §3, §4

[5] = test system: MOOVA = Monochoria vaginalis (monochoria); experiment: Field trial in-water herbicidal efficacy
Description: as §1, §2, §3, §4

[6] = test system: SCPJU = Schoenoplectus juncoides (Japanese bulrush); experiment: Field trial in-water herbicidal efficacy
Description: as §1, §2, §3, §4

[7] = test system: ORYSP = Oryza sativa Japonica (transplanted paddy rice); experiment: Field trial in-water application, crop tolerance
Description: as §1, §2, §3, §4

Structure (SMILES) | Percent (%) Visual Injury Ratings - 31 DAA, ORYSP ([1]; 280 g ae/ha in-water) [%] | Percent (%) Visual Injury Ratings - 31 DAA, ORYSP ([1]; 560 g ae/ha in-water) [%] | Percent (%) Visual Injury Ratings - 31 DAA, ORYSP ([1]; 1120 g ae/ha in-water) [%] | Percent (%) Visual Injury Ratings - 28 DAA, LEFCH ([2]; 140 g ae/ha in-water 10 DAT) [%] | Percent (%) Visual Injury Ratings - 28 DAA, LEFCH ([2]; 280 g ae/ha in-water 10 DAT) [%] | Percent (%) Visual Injury Ratings - 28 DAA, LEFCH ([2]; 560 g ae/ha in-water 10 DAT) [%] | Percent (%) Visual Injury Ratings - 28 DAA, ECHCG ([3]; 140 g ae/ha in-water 10 DAT) [%] | Percent (%) Visual Injury Ratings - 28 DAA, ECHCG ([3]; 280 g ae/ha in-water 10 DAT) [%] | Percent (%) Visual Injury Ratings - 28 DAA, ECHCG ([3]; 560 g ae/ha in-water 10 DAT) [%] | Percent (%) Visual Injury Ratings - 28 DAA, CYPDI ([4]; 140 g ae/ha in-water 10 DAT) [%] | Percent (%) Visual Injury Ratings - 28 DAA, CYPDI ([4]; 280 g ae/ha in-water 10 DAT) [%] | Percent (%) Visual Injury Ratings - 28 DAA, CYPDI ([4]; 560 g ae/ha in-water 10 DAT) [%] | Percent (%) Visual Injury Ratings - 28 DAA, MOOVA ([5]; 140 g ae/ha in-water 10 DAT) [%] | Percent (%) Visual Injury Ratings - 28 DAA, MOOVA ([5]; 280 g ae/ha in-water 10 DAT) [%] | Percent (%) Visual Injury Ratings - 28 DAA, MOOVA ([5]; 560 g ae/ha in-water 10 DAT) [%] | Percent (%) Visual Injury Ratings - 28 DAA, SCPJU ([6]; 140 g ae/ha in-water 10 DAT) [%] | Percent (%) Visual Injury Ratings - 28 DAA, SCPJU ([6]; 280 g ae/ha in-water 10 DAT) [%] | Percent (%) Visual Injury Ratings - 28 DAA, SCPJU ([6]; 560 g ae/ha in-water 10 DAT) [%] | Percent (%) Visual Injury Ratings - 28 DAA, ORYSP ([7]; 140 g ae/ha in-water 10 DAT) [%] | Percent (%) Visual Injury Ratings - 28 DAA, ORYSP ([7]; 280 g ae/ha in-water 10 DAT) [%] | also measured
O=C(O)COc1nc(Cl)c(Cl)cc1Cl [Triclopyr triethanolamine (Garlon ® 3A), triethylammonium 2[(3,5,6-trichloro-2-pyridinyl)oxy]acetate] | 1 | 5 | 70 | 0.0 | 0.0 | 0.0 | 0.0 | 0.0 | 0.0 | 0.0 | 0.0 | 0.0 | 0.0 | 0.0 | 0.0 | 0.0 | 0.0 | 0.0 | 0 | 0 | Percent (%) Visual Injury Ratings - 28 DAA, ORYSP ([7]; 560 g ae/ha in-water 10 DAT): 0%
CCCCCCC(C)OC(=O)COc1nc(F)c(Cl)c(N)c1Cl (stereo not drawn) [Fluroxypyr-meptyl (Starane ® Ultra), 1-methylheptyl 2-[(4-amino-3,5-dichloro-6-fluoro-2-pyridinyl)oxy]acetate] | 5 | 28 | 73 | 0.0 | 0.0 | 0.0 | 0.0 | 0.0 | 0.0 | 95.0 | 98.7 | 100.0 | 0.0 | 0.0 | 60.0 | 88.3 | 98.0 | 99.3 | 0 | 0 | Percent (%) Visual Injury Ratings - 28 DAA, ORYSP ([7]; 560 g ae/ha in-water 10 DAT): 0%
O=C(O)COc1ccc(Cl)cc1Cl [2,4-D DMA (Weedar ® 64), dimethylammonium 2-(2,4-dichlorophenoxy)acetate] | 0 | 3 | 4 | 0.0 | 0.0 | 0.0 | 0.0 | 0.0 | 0.0 | 0.0 | 94.3 | 100.0 | 0.0 | 6.7 | 93.3 | 10.0 | 90.0 | 100.0 | 0 | 0 | Percent (%) Visual Injury Ratings - 28 DAA, ORYSP ([7]; 560 g ae/ha in-water 10 DAT): 0%
